Test results reported in US20100222269A1, “IMPROVED DERIVATIVES OF AMYLIN” (priority 2007, published 2010).
Where two headings read alike, the source gives them in different places. Starred links: 1 amine or outer side, 2 acyl side, 3 side chain; linkers in the order of their positions; H or OH if unused. Positions of bridges follow the written chain, without caps; N, C: chain ends. Residues, ends and D or L forms follow the SMILES beside them. Groups on a side chain read outwards from the residue. *: point of attachment. C20 diacid = O=C(O)CCCCCCCCCCCCCCCCCCC(=O)*; C18 diacid = O=C(O)CCCCCCCCCCCCCCCCC(=O)*; γGlu = O=C(O)[C@H](CCC(=O)[*:2])N[*:1]; AEEA = NCCOCCOCC(=O)O

Molecular target: T1, Amylin 3(a) receptor (human calcitonin receptor (CTa) with RAMP-3) (Homo sapiens, UniProt O60896+P30988)
T1 construct: expressed in transfected cells; host or cells: BHK570 (baby hamster kidney) cells, stably transfected, with CRE-luciferase reporter
T1 sequence (O60896 24-148): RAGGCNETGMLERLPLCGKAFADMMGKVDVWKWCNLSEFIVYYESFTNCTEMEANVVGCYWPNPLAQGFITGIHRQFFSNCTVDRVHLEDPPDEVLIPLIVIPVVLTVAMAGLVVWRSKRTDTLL
T1 sequence (P30988 25-474): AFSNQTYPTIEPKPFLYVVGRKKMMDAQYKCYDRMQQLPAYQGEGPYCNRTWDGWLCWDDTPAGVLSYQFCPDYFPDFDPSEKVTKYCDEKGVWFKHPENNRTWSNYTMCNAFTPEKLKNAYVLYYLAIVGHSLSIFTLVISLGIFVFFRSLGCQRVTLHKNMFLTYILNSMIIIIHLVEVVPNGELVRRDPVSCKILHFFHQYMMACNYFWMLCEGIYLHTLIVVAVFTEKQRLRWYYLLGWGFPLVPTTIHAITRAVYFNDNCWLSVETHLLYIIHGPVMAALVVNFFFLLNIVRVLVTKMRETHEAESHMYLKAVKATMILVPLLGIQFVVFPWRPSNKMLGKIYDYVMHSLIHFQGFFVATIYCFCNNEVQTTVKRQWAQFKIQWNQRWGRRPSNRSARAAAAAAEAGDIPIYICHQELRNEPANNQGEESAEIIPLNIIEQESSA
Test: Amylin luciferase assay (CRE-luciferase reporter in BHK Amylin 3(a)//CRE-luc cells)
Format: cell-based
Excerpt: It has previously been published (Poyner D R et al 2002, Pharmacological Reviews 54(2) 233-246) that activation of Amylin receptors (coexpression of Calcitonin receptor and receptor activity modifying peptides RAMPs) by Amylin leads to an increase in the intracellular concentration of cAMP. Consequently, transcription is activated at promotors containing multiple copies of the cAMP response element (CRE). It is thus possible to measure Amylin activity by use of a CRE luciferase reporter gene introduced into BHK cells also expressing an Amylin receptor.
2. Construction of an Amylin 3(a)/CRE-luc Cell Line
A BHK570 cell line stably transfected with the human calcitonin receptor (CTa) and a CRE-responsive luciferase reportergene. The cell line was further transfected with RAMP-3, using standard methods. This turns the Calcitonin receptor into an Amylin 3(a) receptor. Methotrexate, Neomycin, and Hygromycin are selection markers for luciferase, the Calcitonin receptor, and RAMP-3, respectively.
3. Amylin Luciferase Assay
To perform activity assays, BHK Amylin 3(a)//CRE-luc cells were seeded in white 96 well culture plates at a density of about 20.000 cells/well. The cells were in 100 μl growth medium (DMEM with 10% FBS, 1% Pen/Strep, 1 mM Na-pyruvate, 250 nM Methotrexate, 500 μg/ml Neomycin, and 400 μg/ml Hygromycin). After incubation overnight at 37° C. and 5% CO2, the growth medium was replaced by 50 μl/well assay medium (DMEM (without phenol red), Glumamax™, 10% FBS, and 10 mM Hepes, pH 7,4). Further, 50 μl/well of standard or sample in assay buffer were added. After 4 hours incubation at 37° C. and 5% CO2, the assay medium with standard or sample were removed and replaced by 100 μl/well PBS. Further, 100 μl/well LucLite™ was added. The plates were sealed and incubated at room temperature for 30 minutes. Finally, luminescence was measured on a TopCounter (Packard) in SPC (single photon counting) mode.

[1] = BHK570 cells with human calcitonin receptor (CTa), RAMP-3 and CRE-luciferase reporter, 4 hours incubation, read-out: Potency luciferase assay

Compound	EC50 [1]	EC50
CC[C@H](C)[C@H](NC(=O)[C@@H]1CCCN1C(=O)CNC(=O)[C@H](Cc1ccccc1)NC(=O)[C@H](CC(N)=O)NC(=O)[C@H](CC(N)=O)NC(=O)[C@H](CO)NC(=O)[C@H](CO)NC(=O)[C@H](Cc1c[nH]cn1)NC(=O)[C@@H](NC(=O)[C@H](CC(C)C)NC(=O)[C@H](Cc1ccccc1)NC(=O)[C@H](CC(N)=O)NC(=O)[C@H](C)NC(=O)[C@H](CC(C)C)NC(=O)[C@H](CCCNC(=N)N)NC(=O)[C@H](CCC(N)=O)NC(=O)[C@@H](NC(=O)[C@H](C)NC(=O)[C@@H]1CSSC[C@H](NC(=O)[C@@H](N)CCCCN)C(=O)N[C@@H](CCCCNC(=O)COCCOCCNC(=O)COCCOCCNC(=O)CC[C@H](NC(=O)CCCCCCCCCCCCCCCCC(=O)O)C(=O)O)C(=O)N[C@@H]([C@@H](C)O)C(=O)N[C@@H](C)C(=O)N[C@@H]([C@@H](C)O)C(=O)N1)[C@@H](C)O)C(C)C)C(=O)N[C@@H](CC(C)C)C(=O)N1CCC[C@H]1C(=O)N1CCC[C@H]1C(=O)N[C@H](C(=O)N[C@@H](CC(N)=O)C(=O)N[C@H](C(=O)NCC(=O)N[C@@H](CO)C(=O)N[C@@H](CC(N)=O)C(=O)N[C@H](C(=O)N[C@@H](Cc1ccc(O)cc1)C(N)=O)[C@@H](C)O)C(C)C)[C@@H](C)O [Example 11, N-epsilon3-[2-(2-{2-[2-(2-{2-[(S)-4-carboxy-4-(17-carboxyheptadecanoylamino)butyrylamino]ethoxy}ethoxy)acetylamino]ethoxy}ethoxy)acetyl]-[Lys3]-pramlintide (1-37)] (H-KCK([AEEA-AEEA-γGlu-C18 diacid])TATCATQRLANFLVHSSNNFGPILPPTNVGSNTY-NH2; disulfide 2-7; N-terminus assumed)		0.2 nM
CC[C@H](C)[C@H](NC(=O)[C@@H]1CCCN1C(=O)CNC(=O)[C@H](Cc1ccccc1)NC(=O)[C@H](CC(N)=O)NC(=O)[C@H](CC(N)=O)NC(=O)[C@H](CO)NC(=O)[C@H](CO)NC(=O)[C@H](Cc1c[nH]cn1)NC(=O)[C@@H](NC(=O)[C@H](CC(C)C)NC(=O)[C@H](Cc1ccccc1)NC(=O)[C@H](CC(N)=O)NC(=O)[C@H](C)NC(=O)[C@H](CC(C)C)NC(=O)[C@H](CCCNC(=N)N)NC(=O)[C@H](CCC(N)=O)NC(=O)[C@@H](NC(=O)[C@H](C)NC(=O)[C@@H]1CSSC[C@H](NC(=O)[C@@H](N)CCCCN)C(=O)N[C@@H](CCCCNC(=O)COCCOCCNC(=O)COCCOCCNC(=O)CC[C@H](NC(=O)CCCCCCCCCCCCCCCCCCC(=O)O)C(=O)O)C(=O)N[C@@H]([C@@H](C)O)C(=O)N[C@@H](C)C(=O)N[C@@H]([C@@H](C)O)C(=O)N1)[C@@H](C)O)C(C)C)C(=O)N[C@@H](CC(C)C)C(=O)N1CCC[C@H]1C(=O)N1CCC[C@H]1C(=O)N[C@H](C(=O)N[C@@H](CC(N)=O)C(=O)N[C@H](C(=O)NCC(=O)N[C@@H](CO)C(=O)N[C@@H](CC(N)=O)C(=O)N[C@H](C(=O)N[C@@H](Cc1ccc(O)cc1)C(N)=O)[C@@H](C)O)C(C)C)[C@@H](C)O [Example 12, N-epsilon3-[2-(2-{2-[2-(2-{2[(S)-4-carboxy-4-(19-carboxynonadecanoylamino)butyrylamino]ethoxy}ethoxy)acetylamino]ethoxy}ethoxy)acetyl]-[Lys3]-pramlintide (1-37)] (H-KCK([AEEA-AEEA-γGlu-C20 diacid])TATCATQRLANFLVHSSNNFGPILPPTNVGSNTY-NH2; disulfide 2-7; N-terminus and C-terminus assumed)	0.3 nM	

Further compounds by falling EC50 [1], results first:

EC50 [1]	Compound	EC50
0.06 nM	CC[C@H](C)[C@H](NC(=O)[C@@H]1CCCN1C(=O)CNC(=O)[C@H](Cc1ccccc1)NC(=O)[C@H](CC(N)=O)NC(=O)[C@H](CC(N)=O)NC(=O)[C@H](CO)NC(=O)[C@H](CO)NC(=O)[C@H](Cc1c[nH]cn1)NC(=O)[C@@H](NC(=O)[C@H](CC(C)C)NC(=O)[C@H](Cc1ccccc1)NC(=O)[C@H](CC(N)=O)NC(=O)[C@H](C)NC(=O)[C@H](CC(C)C)NC(=O)[C@H](CCCNC(=N)N)NC(=O)[C@H](CCC(N)=O)NC(=O)[C@@H](NC(=O)[C@H](C)NC(=O)[C@@H]1CSSC[C@H](NC(=O)[C@@H](N)CCCCN)C(=O)N[C@@H](CCCCNC(=O)COCCOCCNC(=O)COCCOCCNC(=O)CCCCCCCCCCCCCCCCCCC(=O)O)C(=O)N[C@@H]([C@@H](C)O)C(=O)N[C@@H](C)C(=O)N[C@@H]([C@@H](C)O)C(=O)N1)[C@@H](C)O)C(C)C)C(=O)N[C@@H](CC(C)C)C(=O)N1CCC[C@H]1C(=O)N1CCC[C@H]1C(=O)N[C@H](C(=O)N[C@@H](CC(N)=O)C(=O)N[C@H](C(=O)NCC(=O)N[C@@H](CO)C(=O)N[C@@H](CC(N)=O)C(=O)N[C@H](C(=O)N[C@@H](Cc1ccc(O)cc1)C(N)=O)[C@@H](C)O)C(C)C)[C@@H](C)O [Example 13, N-epsilon3-(2-{2-[2-(2-{2-[2-(19-carboxynonadecanoylamino)ethoxy]ethoxy}acetylamino)ethoxy]ethoxy}acetyl)-[Lys3]-pramlintide (1-37)] (H-KCK([AEEA-AEEA-C20 diacid])TATCATQRLANFLVHSSNNFGPILPPTNVGSNTY-NH2; disulfide 2-7; N-terminus assumed)	
0.05 nM	CC[C@H](C)[C@H](NC(=O)[C@@H]1CCCN1C(=O)CNC(=O)[C@H](Cc1ccccc1)NC(=O)[C@H](CC(N)=O)NC(=O)[C@H](CC(N)=O)NC(=O)[C@H](CO)NC(=O)[C@H](CO)NC(=O)[C@H](Cc1c[nH]cn1)NC(=O)[C@@H](NC(=O)[C@H](CC(C)C)NC(=O)[C@H](Cc1ccccc1)NC(=O)[C@H](CC(N)=O)NC(=O)[C@H](C)NC(=O)[C@H](CC(C)C)NC(=O)[C@H](CCCNC(=N)N)NC(=O)[C@H](CCC(N)=O)NC(=O)[C@@H](NC(=O)[C@H](C)NC(=O)[C@@H]1CSSC[C@H](NC(=O)[C@@H](N)CCCCN)C(=O)N[C@@H](CCCCNC(=O)CCCCCCCCCCCCCCCCCCC(=O)O)C(=O)N[C@@H]([C@@H](C)O)C(=O)N[C@@H](C)C(=O)N[C@@H]([C@@H](C)O)C(=O)N1)[C@@H](C)O)C(C)C)C(=O)N[C@@H](CC(C)C)C(=O)N1CCC[C@H]1C(=O)N1CCC[C@H]1C(=O)N[C@H](C(=O)N[C@@H](CC(N)=O)C(=O)N[C@H](C(=O)NCC(=O)N[C@@H](CO)C(=O)N[C@@H](CC(N)=O)C(=O)N[C@H](C(=O)N[C@@H](Cc1ccc(O)cc1)C(N)=O)[C@@H](C)O)C(C)C)[C@@H](C)O [Example 14, N-epsilon3-(19-carboxynonadecanoyl)-[Lys3]-pramlintide (1-37)] (H-KCK(C20 diacid)TATCATQRLANFLVHSSNNFGPILPPTNVGSNTY-NH2; disulfide 2-7; N-terminus assumed)	
0.03 nM	CC(C)C[C@H](NC(=O)[C@H](CC(N)=O)NC(=O)[C@H](CC(N)=O)NC(=O)[C@H](CO)NC(=O)[C@H](CO)NC(=O)[C@H](CCCNC(=N)N)NC(=O)[C@@H](NC(=O)[C@H](CC(C)C)NC(=O)[C@H](Cc1ccccc1)NC(=O)[C@H](CC(N)=O)NC(=O)[C@H](C)NC(=O)[C@H](CC(C)C)NC(=O)[C@H](CCCNC(=N)N)NC(=O)[C@H](CCC(N)=O)NC(=O)[C@@H](NC(=O)[C@H](C)NC(=O)[C@@H]1CSSC[C@H](NC(=O)CC[C@H](NC(=O)CCCCCCCCCCCCCCCCC(=O)O)C(=O)O)C(=O)N[C@@H](CC(N)=O)C(=O)N[C@@H]([C@@H](C)O)C(=O)N[C@@H](C)C(=O)N[C@@H]([C@@H](C)O)C(=O)N1)[C@@H](C)O)C(C)C)C(=O)NCC(=O)N1CCC[C@H]1C(=O)N[C@H](C(=O)N[C@@H](CC(C)C)C(=O)N1CCC[C@H]1C(=O)N1CCC[C@H]1C(=O)N[C@H](C(=O)N[C@@H](CC(N)=O)C(=O)N[C@H](C(=O)NCC(=O)N[C@@H](CO)C(=O)N[C@@H](CC(N)=O)C(=O)N[C@H](C(=O)N[C@@H](Cc1ccc(O)cc1)C(N)=O)[C@@H](C)O)C(C)C)[C@@H](C)O)C(C)C [Example 16, N-alpha-[(S)-4-carboxy-4-(17-carboxyheptadecanoylamino)butyryl]-[Arg18,Leu23,Val26]-pramlintide (2-37)]	
